Assay results: patent publication US4816562A, “Novel substrate for plasma kallikrein and a method for measuring biological components using the same” (Nitto Boseki Co., Ltd., priority 1985, dated 1989)
Several values for one entry are separate records, joined by “and”; a condition that tells them apart may be missing. Equal entries are not always repeated. Where a SMILES comes first, the peptide text is derived from it. [ ]: non-standard residue; d: D form. The star is where a group is joined. pNA = O=[N+]([O-])c1ccc(N*)cc1

Assays:
Thrombin (TH) = target: T1, Thrombin (TH) (Bos taurus, UniProt P00735); test: Substrate specificity: reaction of chromogenic substrates with thrombin, absorbance read-out; type: biochemical, Bovine; conditions: for Absorbance (O.D.) TH: S0 = 2.0 mM, 37° C., 5 minutes, pH 8.5; for Relative reactivity with TH: PS-2203N taken as 100, initial substrate concentration S0 = 2 mM; for Reactivity with thrombin: relative to Z-D-Orn-Phe-Arg-PNA (PS-2203N) as 100
T1 construct: purchased Mochida Pharmaceutical Lot No. 65146 (catalogue number not given)
Procedure: (§1) The specificities of the novel substrates synthesized above were examined by reacting them with various enzymes.
(§2) (1) Substrate solution: 2 mmoles/liter H2 O
(§3) (2) Buffer solution: Concentrations of Tris, NaCl and CaCl2 and pH value of reaction for every enzyme were as follows: […]
(§4) Into a silicone-treated test tube made of hard glass or a plastic were introduced 0.3 ml of a buffer solution and 0.1 ml of an enzyme reagent. After preheating them for 5 minutes in a thermostated bath kept at 37° C., 0.1 ml of substrate solution was added and an enzyme reaction was carried out at 37° C. for 5 minutes. When an exact five minutes had passed, 2.0 ml of the reaction stopper or the reaction-stopping color-forming reagent was added to stop the enzyme reaction, and subsequently the reaction mixture was allowed to stand at 37° C. for 10 minutes. Then, absorbance was measured at 405 nm or 700 nm.

Xa factor (FXa) = target: T2, Xa factor (FXa) (Bos taurus, UniProt P00743); test: Substrate specificity: reaction of chromogenic substrates with Xa factor, absorbance read-out; type: biochemical, Bovine; conditions: for Absorbance (O.D.) FXa: S0 = 2.0 mM, 37° C., 5 minutes, pH 8.3; for Relative reactivity with FXa: PS-2203N taken as 100, initial substrate concentration S0 = 2 mM; for Reactivity with Xa factor: relative to Z-D-Orn-Phe-Arg-PNA (PS-2203N) as 100
T2 construct: purchased Sigma Lot No. 73F-9450 (catalogue number not given)
T2 sequence (P00743 234-492 limits assumed): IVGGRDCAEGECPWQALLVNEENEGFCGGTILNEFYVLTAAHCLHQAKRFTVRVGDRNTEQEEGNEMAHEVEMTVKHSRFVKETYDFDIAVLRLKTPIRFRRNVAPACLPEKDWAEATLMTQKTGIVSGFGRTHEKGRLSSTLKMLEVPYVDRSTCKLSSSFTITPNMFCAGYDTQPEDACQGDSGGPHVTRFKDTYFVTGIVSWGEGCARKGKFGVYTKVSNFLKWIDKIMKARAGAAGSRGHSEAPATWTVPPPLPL
T2 sequence (P00743 41-180 partner limits assumed): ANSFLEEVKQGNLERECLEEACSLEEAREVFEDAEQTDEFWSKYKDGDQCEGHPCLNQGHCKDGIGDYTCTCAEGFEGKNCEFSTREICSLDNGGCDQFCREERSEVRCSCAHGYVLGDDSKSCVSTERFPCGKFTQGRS
Procedure: as §1, §2, §3, §4

[1] = target: T3, Glandular kallikrein (HGK) (Homo sapiens, UniProt P06870); test: Substrate specificity: reaction of chromogenic substrates with glandular kallikrein, absorbance read-out; type: biochemical, Human urine; conditions: for Absorbance (O.D.) HGK: S0 = 2.0 mM, 37° C., 5 minutes, pH 9.0; for Relative reactivity with HGK: PS-2203N taken as 100, initial substrate concentration S0 = 2 mM; for Reactivity with glandular kallikrein: relative to Z-D-Orn-Phe-Arg-PNA (PS-2203N) as 100
T3 construct: purchased Green Cross Lot No. 1003SM (catalogue number not given); host or cells: human urine
T3 sequence (P06870 25-262): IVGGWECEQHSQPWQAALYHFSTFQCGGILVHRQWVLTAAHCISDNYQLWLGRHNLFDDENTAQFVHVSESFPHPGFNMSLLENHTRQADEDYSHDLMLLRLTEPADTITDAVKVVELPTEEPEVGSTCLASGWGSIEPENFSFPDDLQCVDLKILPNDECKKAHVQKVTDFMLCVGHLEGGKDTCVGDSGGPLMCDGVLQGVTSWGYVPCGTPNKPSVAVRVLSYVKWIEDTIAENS
Procedure: as §1, §2, §3, §4

Urokinase (UK) = target: T4, Urokinase (UK) (Homo sapiens, UniProt P00749); test: Substrate specificity: reaction of chromogenic substrates with urokinase, absorbance read-out; type: biochemical; conditions: for Absorbance (O.D.) UK: S0 = 2.0 mM, 37° C., 5 minutes, pH 8.2; for Relative reactivity with UK: PS-2203N taken as 100, initial substrate concentration S0 = 2 mM
T4 construct: purchased Mochida Pharmaceutical Lot No. 2A-139 (catalogue number not given)
Procedure: as §1, §2, §3, §4

Plasmin (PL) = target: T5, Plasmin (PL) (Homo sapiens, UniProt P00747); test: Substrate specificity: reaction of chromogenic substrates with plasmin, absorbance read-out; type: biochemical; conditions: for Absorbance (O.D.) PL: S0 = 2.0 mM, 37° C., 5 minutes, pH 7.8; for Relative reactivity with PL: PS-2203N taken as 100, initial substrate concentration S0 = 2 mM; for Reactivity with plasmin: relative to Z-D-Orn-Phe-Arg-PNA (PS-2203N) as 100
T5 construct: purchased Green Cross Lot No. PL-35 (catalogue number not given)
T5 sequence (P00747 581-810 limits assumed): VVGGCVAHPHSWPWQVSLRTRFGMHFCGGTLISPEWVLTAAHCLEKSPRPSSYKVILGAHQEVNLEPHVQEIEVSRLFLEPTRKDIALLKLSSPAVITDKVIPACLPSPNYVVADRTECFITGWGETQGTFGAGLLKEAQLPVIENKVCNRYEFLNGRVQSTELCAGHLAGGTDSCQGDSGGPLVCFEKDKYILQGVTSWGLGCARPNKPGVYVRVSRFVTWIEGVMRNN
T5 sequence (P00747 97-580 partner limits assumed): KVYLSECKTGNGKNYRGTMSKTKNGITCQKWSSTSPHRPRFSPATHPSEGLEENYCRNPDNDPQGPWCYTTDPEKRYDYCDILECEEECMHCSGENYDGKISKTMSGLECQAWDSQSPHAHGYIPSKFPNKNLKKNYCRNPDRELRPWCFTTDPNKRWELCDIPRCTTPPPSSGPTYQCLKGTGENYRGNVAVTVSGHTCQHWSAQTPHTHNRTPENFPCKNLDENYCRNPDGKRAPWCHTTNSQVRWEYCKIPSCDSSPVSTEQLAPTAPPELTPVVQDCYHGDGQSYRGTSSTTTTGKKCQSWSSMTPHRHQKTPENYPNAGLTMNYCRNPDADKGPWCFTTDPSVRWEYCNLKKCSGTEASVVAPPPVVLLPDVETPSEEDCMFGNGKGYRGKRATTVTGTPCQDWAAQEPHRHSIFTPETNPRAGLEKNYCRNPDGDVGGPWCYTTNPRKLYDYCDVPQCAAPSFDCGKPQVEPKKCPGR
Procedure: as §1, §2, §3, §4

Plasma kallikrein (HPK) = target: T6, Plasma kallikrein (HPK) (Homo sapiens, UniProt P03952); test: Substrate specificity: reaction of chromogenic substrates with plasma kallikrein, absorbance read-out; type: biochemical; conditions: for Absorbance (O.D.) HPK: S0 = 2.0 mM, 37° C., 5 minutes, pH 9.0; for Relative reactivity with HPK: PS-2203N taken as 100, initial substrate concentration S0 = 2 mM
T6 construct: purchased AB Kabi Diagnostica Lot No. 3740152 (catalogue number not given)
T6 sequence (P03952 391-638 limits assumed): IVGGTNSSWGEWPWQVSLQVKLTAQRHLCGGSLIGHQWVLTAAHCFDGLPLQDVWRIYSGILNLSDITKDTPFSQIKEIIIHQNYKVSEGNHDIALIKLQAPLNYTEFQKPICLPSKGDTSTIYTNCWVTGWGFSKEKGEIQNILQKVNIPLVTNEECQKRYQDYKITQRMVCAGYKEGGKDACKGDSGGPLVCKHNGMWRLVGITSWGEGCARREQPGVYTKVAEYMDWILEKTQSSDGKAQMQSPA
T6 sequence (P03952 20-390 partner limits assumed): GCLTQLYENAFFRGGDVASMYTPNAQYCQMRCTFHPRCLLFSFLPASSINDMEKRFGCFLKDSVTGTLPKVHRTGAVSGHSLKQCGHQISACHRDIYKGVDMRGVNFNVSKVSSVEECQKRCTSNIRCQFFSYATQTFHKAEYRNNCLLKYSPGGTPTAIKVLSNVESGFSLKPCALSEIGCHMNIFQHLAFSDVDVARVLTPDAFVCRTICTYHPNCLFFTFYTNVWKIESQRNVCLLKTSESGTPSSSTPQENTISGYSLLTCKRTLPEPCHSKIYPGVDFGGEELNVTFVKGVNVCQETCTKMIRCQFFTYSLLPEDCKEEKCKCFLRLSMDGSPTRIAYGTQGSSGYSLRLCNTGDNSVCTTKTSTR
Procedure: as §1, §2, §3, §4

[2] = 700 nm (CHA substrates, pentaamine ferroate)

Compound	Relative reactivity with TH (Thrombin (TH))	Relative reactivity with FXa (Xa factor (FXa))	Relative reactivity with HGK [1]	Relative reactivity with UK (Urokinase (UK))	Relative reactivity with PL (Plasmin (PL))	Relative reactivity with HPK (Plasma kallikrein (HPK))	Absorbance (O.D.) TH (Thrombin (TH); [2]) [O.D.]	Absorbance (O.D.) FXa (Xa factor (FXa); [2]) [O.D.]	Absorbance (O.D.) HGK [1, 2] [O.D.]	Absorbance (O.D.) UK (Urokinase (UK); [2]) [O.D.]	Absorbance (O.D.) PL (Plasmin (PL); [2]) [O.D.]	Absorbance (O.D.) HPK (Plasma kallikrein (HPK); [2]) [O.D.]	other results
N=C(N)NCCC[C@H](NC(=O)[C@H](Cc1ccccc1)NC(=O)[C@H]1CCCN1)C(=O)Nc1ccc([N+](=O)[O-])cc1 [S-2302, H-D-Pro-Phe-Arg-PNA, reference compound] (H-[dP]-Phe-Arg-pNA)	269	169	169	50	48	131							Absorbance (O.D.) TH (Thrombin (TH); 405 nm (PNA substrates)): 0.152 O.D.; Reactivity with thrombin (Thrombin (TH)): 269%; Absorbance (O.D.) FXa (Xa factor (FXa); 405 nm (PNA substrates)): 0.389 O.D.; Reactivity with Xa factor (Xa factor (FXa)): 169%; Absorbance (O.D.) HGK ([1]; 405 nm (PNA substrates)): 0.021 O.D.; Reactivity with glandular kallikrein [1]: 169%; Absorbance (O.D.) UK (Urokinase (UK); 405 nm (PNA substrates)): 0.011 O.D.; Reactivity with urokinase (Urokinase (UK); relative to Z-D-Orn-Phe-Arg-PNA (PS-2203N) as 100): 50%; Absorbance (O.D.) PL (Plasmin (PL); 405 nm (PNA substrates)): 0.121 O.D.; Reactivity with plasmin (Plasmin (PL)): 48%; Absorbance (O.D.) HPK (Plasma kallikrein (HPK); 405 nm (PNA substrates)): 0.325 O.D.
MOC--D-Lys--Phe--Arg--CHA.2HCl [PS-2204]							0.010	0.046	0.016	0.0	0.107	0.301	
SBz--D-Lys--Phe--Arg--CHA.2HCl [PS-2206]							0.007	0.016	0.010	0.0	0.094	0.234	
Tos-D-Lys-Phe-Arg-CHA.2HCl [PS-2205]							0.015	0.010	0.014	0.0	0.158	0.255	
Z--D-Lys--Phe--Arg--CHA.2HCl [PS-2200]							0.009	0.046	0.010	0.002	0.094	0.316	
Z-D-Orn-Phe-Arg-CHA [PS-2203]	2	4	15	0	14	59	0.007	0.022	0.005	0.0	0.079	0.331	Reactivity with thrombin (Thrombin (TH)): 2%; Reactivity with Xa factor (Xa factor (FXa)): 4%; Reactivity with glandular kallikrein [1]: 15%; Reactivity with plasmin (Plasmin (PL)): 14%
Z-D-Orn-Phe-Arg-PNA [PS-2203N, reference compound]	100	100	100	100	100	100							Absorbance (O.D.) TH (Thrombin (TH); 405 nm (PNA substrates)): 0.056 O.D.; Absorbance (O.D.) FXa (Xa factor (FXa); 405 nm (PNA substrates)): 0.230 O.D.; Absorbance (O.D.) HGK ([1]; 405 nm (PNA substrates)): 0.013 O.D.; Absorbance (O.D.) UK (Urokinase (UK); 405 nm (PNA substrates)): 0.021 O.D.; Absorbance (O.D.) PL (Plasmin (PL); 405 nm (PNA substrates)): 0.250 O.D.; Absorbance (O.D.) HPK (Plasma kallikrein (HPK); 405 nm (PNA substrates)): 0.250 O.D. and 0.249 O.D.
i-BOC--D-Lys--Phe--Arg--CHA.2HCl [PS-2202]							0.005	0.040	0.006	0.0	0.128	0.245	
